# Data from patent US20040029197A1, “Novel human cancer/testis antigen and gene thereof” (priority 2000, published 2004).
# Where no end group is shown, it is not given here.
# Tested on: C1R-A24 cells
# Experiment: Cytotoxity test (51Cr release) with peptide-stimulated CD8-positive T cells of a cancer patient
# Assay type: cell-based, human
# Conditions: target C1R-A24 cells added with 1 iM of the peptide, effecter CD8-positive T cells after MLPC twice, six hours, FIG. 8
# Experimental: Peripheral blood of a patient whose D40 gene expression in the tumor tissue was observed by RT-PCR method was multi-layered in Ficoll-Conray solution with specific gravity of 1.082 and the blood was separated to plasma, lymphocyte phase, Ficoll-Conray phase and erythrocyte phase from the top by centrifugation of 1500 rpm for 30 min. The lymphocyte phase was collected and cultured for a day in AIM-V, a serum-free medium, after which the cell population adhered to the bottom of the culture flask and the suspended cell population were separated by gently shaking the flask. The adhered cell population is a cell population called PBMC (peripheral blood mononuclear cells) which includes B cells, macrophages and dendritic cells that are so-called antigen-presenting cells (APC). […] The APC after the culture were treated with radioactivity in order to get rid of their proliferation ability.
# On the other hand, the suspended cell population mainly contains T cells and these suspended cells were cultured in AIM−V+IL−2 for four days. […] These CD8-positive T cells were added to APC, which have been treated with radioactivity as mentioned above, and cultured for two days. […] Then the radioactivity of ^51Cr released from the target C1R-A24 cells were measured and the cytotoxity activity (%) was calculated. […]
sequence,measurement,value
"SYTIEINHRL [SYTIEINHRL, Ser-Tyr-Thr-Ile-Glu-Ile-Asn-His-Arg-Leu]",cytotoxic activity of T cells derived from peripheral blood of a cancer patient,specifically injured target C1R-A24 cells
